Measurements as given in patent publication US20260335263A1, “USE OF TROPIC ACID AND DERIVATIVE THEREOF IN PREPARATION OF DRUG FOR TREATING PSORIASIS” (GUANGDONG PHARMACEUTICAL UNIVERSITY, priority 2022, published 2026).

Legend:
[1] = Solubility observed in structural identification; assay type: physicochemical
[2] = test system: Psoriasis in Mice Induced by Imiquimod; experiment: Histomorphological observation (PASI scoring and day 7 photographs of back skin lesions) of psoriasis in mice induced by imiquimod; assay type: in vivo, male Balb/c mice; conditions: for skin lesion scores (overall score), high-dose: vs high-dose tropic acid, compound III P<0.01, compound IV P<0.05; for skin erythema score, low-dose / skin lesion scores (overall score), low-dose: low-dose 3 mg/kg·d by gavage; for skin erythema score, low-dose: compared with low-dose tropic acid, P<0.01; for skin lesion scores (overall score), low-dose: vs low-dose tropic acid; for therapeutic effect on back skin injury induced by imiquimod: overall conclusion, mouse model of psoriasis; for therapeutic effects compared with tropic acid: summary statement
Text: 110 male Balb/c mice (8-10 weeks, 20-25 g each) were anesthetized by intraperitoneal injection of 10% chloral hydrate, and approximately 2 cm×4 cm of back hair was shaved off. The mice were randomly divided into 11 groups, with 10 mice in each group, including a blank control group, a model group, a positive drug group, a high-dose tropic acid group (A), a low-dose tropic acid group (B), a high-dose 4-hydroxy-α-(hydroxymethyl)phenylacetic acid group (C), a low-dose 4-hydroxy-α-(hydroxymethyl)phenylacetic acid group (D), a high-dose 3,4-dihydroxy-α-(hydroxymethyl)phenylacetic acid group (E), a low-dose 3,4-dihydroxy-α-(hydroxymethyl)phenylacetic acid group (F), a high-dose 3,4,5-trihydroxy-α-(hydroxymethyl)phenylacetic acid group (G), and a low-dose 3,4,5-trihydroxy-α-(hydroxymethyl)phenylacetic acid group (H) of. Except for the blank control group, which received no treatment, all other groups were treated with 50 mg of 5% imiquimod cream daily to prepare a psoriasis mouse model. All groups were administered simultaneously, with dosing twice daily, and the grouping and dosing regimen are detailed in Table 1. The treatment was continued for 6 days. On the 7th day, the skin lesions of the mice were photographed and recorded, after which the mice were euthanized and their back skin was taken for further use.
Histomorphological observation: Starting from the first day of modeling, the degree of erythema, scales, and inflammatory infiltration thickening on the back of mice were scored daily according to the PASI scoring criteria. The PAIS scoring criteria were as follows: 0-none; 1-mild; 2-moderate; 3-severe cases; 4-extremely severe. The more severe the degree of skin damage, the higher the score. The three points were summed to obtain the total PASI score. The average score of each group of mice were then plotted to create a trend line to observe the changes in skin lesions of each group of mice. Digital photography was used to record the skin lesions on the back of the mice in each group on the 7th day for observation and comparison.

[3] = test system: Psoriasis in Mice Induced by Imiquimod; experiment: Histopathological examination (HE staining, epidermal thickness) of back skin of mice with imiquimod-induced psoriasis; assay type: in vivo, male Balb/c mice; conditions: day 7, HE staining, compared with the model group
Text: 110 male Balb/c mice (8-10 weeks, 20-25 g each) were anesthetized by intraperitoneal injection of 10% chloral hydrate, and approximately 2 cm×4 cm of back hair was shaved off. […] On the 7th day, the skin lesions of the mice were photographed and recorded, after which the mice were euthanized and their back skin was taken for further use.
Histopathological examination: On the 7th day of modeling, the mice were euthanized, and the back skin of each group of mice was cut and fixed in 4% paraformaldehyde for 24 hours, embedded in paraffin, and sliced into 4 μm sections. HE staining, sealing, and observation of histopathological changes under microscope were performed, and the epidermal thickness was measured using the scale function of the cellSens standard.

[4] = high-dose 6 mg/kg·d by gavage, after 6 days, compared with high-dose tropic acid, P<0.05

| Structure (SMILES) | solubility in methanol ([1]; methanol) | solubility in water ([1]; water) | degree of inflammatory infiltration and thickening of the skin [2, 4] | degree of scale reduction [2, 4] | skin erythema score, high-dose [2, 4] | skin lesion scores (overall score), high-dose ([2]; high-dose 6 mg/kg·d by gavage) | skin erythema score, low-dose ([2]; after 6 days) | skin lesion scores (overall score), low-dose ([2]; P<0.05) | therapeutic effect on back skin injury induced by imiquimod [2] | therapeutic effects compared with tropic acid [2] | incomplete skin keratinization [3] | thickness of the stratum spinosum ([3]; positive drug = dexamethasone 5 mg/kg·d by gavage) |
| --- | --- | --- | --- | --- | --- | --- | --- | --- | --- | --- | --- | --- |
| O=C(O)C(CO)c1ccc(O)c(O)c1 (stereo not drawn) [compound III, 3,4-dihydroxy-α-(hydroxymethyl)phenylacetic acid] | easily soluble | easily soluble | significant decrease | superior | significantly reduced | superior | significantly reduced | superior | best therapeutic effect | more significant therapeutic effects than tropic acid |  |  |
| O=C(O)C(CO)c1cc(O)c(O)c(O)c1 (stereo not drawn) [compound IV, 3,4,5-trihydroxy-α-(hydroxymethyl)phenylacetic acid] |  |  | significant decrease | superior |  | superior | significantly reduced | superior | best therapeutic effect | more significant therapeutic effects than tropic acid |  |  |
| C[C@@H]1C[C@H]2[C@@H]3CCC4=CC(=O)C=C[C@]4(C)[C@@]3(F)[C@@H](O)C[C@]2(C)[C@@]1(O)C(=O)CO [positive drug, dexamethasone] |  |  |  |  |  |  |  |  |  |  | significantly improvements | significantly reduced |
